Counter-ions that a name gives are not always drawn. Like-named read-outs stand apart in the source and are kept apart here.
Target: full-length human PRMT8 isoform 1 (Homo sapiens, UniProt Q9NR22)
Assay: PRMT8 Biochemical Assay (3H-SAM Flashplate, peptide substrate)
How it was run: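 Full-length human PRMT8 (1.5 nM, E. coli-expressed, GST removed) preincubated 30 min at room temperature with compound, then reacted with 50 nM 3H-SAM plus 550 nM cold SAM and 150 nM biotinylated H4 31-45 peptide in 20 mM Bicine pH 7.6, 1 mM TCEP, 0.005% BSG, 0.002% Tween 20, 2% DMSO. Quenched with 400 uM cold SAM; labelled peptide captured on streptavidin Flashplate, % inhibition versus 1 mM SAH and DMSO controls fitted to 4- or 3-parameter curve.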

[1] = single experiment or average of multiple experiments, read-out: Biochemical IC50 PRMT8
[2] = read-out: Biochemical IC50 PRMT8
[3] = Biochemical IC50 PRMT8, single experiment or average of multiple experiments

full-length human PRMT8 isoform 1, sequence (Q9NR22 whole entry, canonical isoform): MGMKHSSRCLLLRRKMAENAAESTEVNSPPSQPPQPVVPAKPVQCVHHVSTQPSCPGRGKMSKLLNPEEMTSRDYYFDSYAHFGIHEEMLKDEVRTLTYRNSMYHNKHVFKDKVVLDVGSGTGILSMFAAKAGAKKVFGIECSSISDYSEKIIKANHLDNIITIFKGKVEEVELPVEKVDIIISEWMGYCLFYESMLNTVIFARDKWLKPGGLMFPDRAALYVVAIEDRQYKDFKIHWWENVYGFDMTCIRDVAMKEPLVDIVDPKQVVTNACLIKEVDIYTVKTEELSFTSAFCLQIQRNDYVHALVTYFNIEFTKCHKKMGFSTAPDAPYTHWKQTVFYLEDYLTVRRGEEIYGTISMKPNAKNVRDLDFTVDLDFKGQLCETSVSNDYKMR

Compound | IC50 [1] [nM] | also measured
CN(CCN)Cc1c[nH]nc1C1CCCC1 [Compound 31] | 1150 | 
CN(CCN)Cc1c[nH]nc1C1=CCCC1 [Compound 25] | 2860 | 
CN(CCN)Cc1c[nH]nc1/C=C/c1ccc(F)cc1F [Compound 13] | 300 | 
CNCCN(C)Cc1c[nH]nc1C1CCC(C)(C)C(C(=O)NCC(C)C)C1 (centres unmarked) [Compound 90] | 117 | IC50 [2]: 101 to 1000 nM
CNCCN(C)Cc1c[nH]nc1C#Cc1cccc(OC)c1 [Compound 1] | 390 | 
CNCCN(C)Cc1c[nH]nc1[C@H]1CC[C@@]2(CC1)CC(C)(C)CO2 [Compound 133, Methyl[2-(methylamino)ethyl]([3-[(5s,8s)-3,3-dimethyl-1-oxaspiro[4.5]decan-8-yl]-1H-pyrazol-4-yl]methyl)amine] |  | IC50 (Biochemical IC50 PRMT8): < 100 nM; IC50 [3]: 9.1 nM
CN(CCN)Cc1c[nH]nc1/C=C/c1cc(F)cc(F)c1 [Compound 15] | 700 | 
CNCCN(C)Cc1c[nH]nc1C1CC(COC)C(C)(C)C(COC)C1 (centres unmarked) [Compound 86] | 3970 | IC50 [2]: 3010 to 10000 nM
CNCCN(C)Cc1c[nH]nc1C1CCC(COCCOC)(COCCOC)CC1 [Compound 60] | 129 | 
CNCCN(C)Cc1c[nH]nc1/C=C/c1ccc(OC)cc1 [Compound 7] | 520 | 
CN(CCN)Cc1c[nH]nc1C1CCC1 [Compound 26] | 5630 | 
Cc1ccc(/C=C/c2n[nH]cc2CN(C)CCN)cc1 [Compound 8] | 360 | 
CN(CCN)Cc1c[nH]nc1/C=C/c1cccc(C(F)(F)F)c1 [Compound 16] | 690 | 
CN(CCN)Cc1c[nH]nc1/C=C/c1cccc(F)c1 [Compound 20] | 470 | 
CC(C)Cc1n[nH]cc1CN(C)CCN [Compound 28, N^1-((3-iso-butyl-1H-pyrazol-4-yl)methyl)-N^1-methylethane-1,2-diamine] | 1680 | 
CNCCN(C)Cc1c[nH]nc1[C@H]1CCC(C)(C)[C@@H](C(=O)NCCCOC)C1 [Compound 270] | 204 | IC50 [2]: 101 to 1000 nM
CN(CCN)Cc1c[nH]nc1C(C)(C)C [Compound 27] | > 10000 | IC50 [2]: > 10000 nM
CNCCN(C)Cc1c[nH]nc1[C@H]1CC[C@]2(CC1)CC(C)(C)CO2 [Compound 134, methyl[2-(methylamino)ethyl]([3-[(5r,8r)-3,3-dimethyl-1-oxaspiro[4.5]decan-8-yl]-1H-pyrazol-4-yl]methyl)amine] |  | IC50 (Biochemical IC50 PRMT8): < 100 nM; IC50 [3]: 24.8 nM
CNCCN(C)Cc1ccnn1C1CCC2(CC1)CC(C)(C)CO2 (centres unmarked) [Compound 274, trifluoroacetate] | 11.9 | IC50 [2]: < 100 nM
CNCCN(C)Cc1c[nH]nc1[C@@H]1CCC(C)(C)[C@@H](C(=O)NCCOC)C1 [Compound 269] | 155 | IC50 [2]: 101 to 1000 nM
CN(CCN)Cc1n[nH]cc1C1CCCCC1 [Compound 33] | 500 | 

Second part, led by results:

IC50 [1] [nM] | Compound | also measured
8.3 | CNCCN(C)Cc1c[nH]nc1C1CCC2(CCCC2)CC1 [Compound 48] | 
29 | CNCCN(C)Cc1c[nH]nc1C1CCC(C)(C)C(C(=O)NCCC(C)C)C1 (centres unmarked) [Compound 91] | IC50 [2]: < 100 nM
7.3 | CNCCN(C)Cc1cnn(C)c1C1CCC2(CCCC2)CC1 [Compound 49] | 
24.2 | CCC(CC)OC1CCC(c2n[nH]cc2CN(C)CCNC)CC1 (centres unmarked) [Compound 70] | IC50 [2]: < 100 nM
30 | CNCCN(C)Cc1c[nH]nc1C1CCNCC1 [Compound 42] | 
30.1 | CNCCN(C)Cc1c[nH]nc1C1CCC(COC)(COC)CC1 [Compound 57] | 
24.7 | CNCCN(C)Cc1c[nH]nc1C1CCC(CCOC)CC1 (centres unmarked) [Compound 55] | 
12 | CNCCN(C)Cc1c[nH]nc1C1CCC2(CC1)CC(C)OC(C)C2 (centres unmarked) [Compound 63] | IC50 [2]: < 100 nM
48.4 | CNCCN(C)Cc1c[nH]nc1C1CC(C)(C)OC(C)(C)C1 [Compound 59] | 
32 | CNCCN(C)Cc1c[nH]nc1C1CCC(OC(C)C)CC1 (centres unmarked) [Compound 56] | 
21.4 | CNCCN(C)Cc1c[nH]nc1C1CCC2(CCCO2)CC1 (centres unmarked) [Compound 51] | 
40 | CN(CCN)Cc1c[nH]nc1/C=C/c1ccc(C(F)(F)F)cc1 [Compound 18] | 

— patent publication US11512053B2, “Arginine methyltransferase inhibitors and uses thereof” (priority 2013, dated 2022)
